Test results reported in patent US20260167972A1, “AMINO ACID DERIVATIVES AS NOVEL DELIVERY AGENTS FOR FUNCTIONAL DELIVERY OF OLIGONUCLEOTIDES” (University of Rochester, priority 2022, published 2026).
Entries after “also recorded” stand apart in the source; their conditions may differ.

Key:
[1] = Transmission electron microscopy of N-X-Phe-DAP/siRNA nanoparticles; assay type: physicochemical; details: for Diameter (nm), TEM: N-X-Phe-DAP/siRNA nanoparticles, 5 μM derivative, 30 nM siRNA, ± standard deviation; for morphology of siRNA nanoparticles/aggregates: TEM images, FIG. 4
Method: Each N-X-Phe-DAP derivative (100 μM) was mixed with siRNA (600 nM) in H2O for 30 minutes, followed by dilution of this mixture into DMEM cell culture media to final concentrations of 5 μM N-X-Phe-DAP derivative and 30 nM siRNA. Dynamic light scattering (DLS) and transmission electron microscopy (TEM) were utilized to analyze the physical characteristics of the resulting N-X-Phe-DAP/siRNA nanoparticles (Table 2, FIG. 4). […] Average diameter (nm), determined by dynamic light scattering (DLS) and TEM imaging, is reported as the average of […] with the error reported as the standard deviation of the mean. Binding affinity (Kd) of each agent to siRNA was determined by a slot blot filtration assay with values reported as the average of three measurements and error reported as the standard deviation of the mean. […] (B) Diameter (nm) determined by TEM (n=9, ***p≤0.001 ****p≤0.0001).
Transmission Electron Microscopy: N-X-Phe-DAP derivatives (100 μM) were complexed with siRNA (600 nM) in Ultrapure™ DNase/RNase-Free Distilled Water (Invitrogen 10977015) and allowed to incubate for 30 minutes at room temperature. These solutions were then diluted into water to give final concentrations of 5 μM Phe derivative and 30 nM siRNA. Samples (5 μL) were spotted on 200 mesh carbon coated copper grids and excess solvent was removed by capillary action with filter paper after 60 seconds. Grids were then stained with uranyl acetate (5 μL) for 60 seconds by excess solvent was removed by capillary action with filter paper. Grids were left to dry for 10 minutes. Images were taken using a Hitachi 7650 transmission electron microscope with an accelerating voltage of 80 kV.

[2] = system: A549 lung adenocarcinoma cells; experiment: Cellular uptake of FITC-siRNA by fluorescence microscopy; assay type: cell-based, human; details: A549 cells dosed 4 hours; green fluorescence, FIG. 5
Method: The N-X-Phe-DAP derivatives facilitate functional delivery of siRNA. N-X-Phe-DAP derivatives (100 μM) were incubated with a fluorescently labelled siRNA (FITC-siRNA, 600 nM) for 30 minutes in the dark followed by dilution into DMEM. A549 lung carcinoma cells were then dosed with these solutions for 4 hours, after which N-X-Phe-DAP/siRNA cellular uptake was visualized by confocal microscopy to visual FITC-siRNA in fixed cells in which the nuclei had been stained with DAPI nuclear stain (FIG. 5). Translocation of siRNA with the N-X-Phe-DAP derivatives was compared with Lipofectamine by observing the presence of green fluorescence (FITC-siRNA) in the images.
Sample Preparation for Cell-Based Experiments: For delivery analysis and functional knockdown, N-X-Phe-DAP derivatives (10 μL, 1 mM) or Lipofectamine 3000 (6 μL) was mixed with TTF-1 siRNA (Santa Cruz Biotechnology sc-36756, 6 μL, 10 μM) in Ultrapure™ DNase/RNase-Free Distilled Water (Invitrogen 10977015) to give a final volume of 100 μL. These mixtures were incubated for 30 minutes at room temperature, followed by dilution into 1×DMEM (Gibco 11965092, 1.9 mL). For cytotoxicity assays, N-X-Phe-DAP derivatives (10 μL, 1 mM) were diluted into 1×DMEM (Gibco 11965092, 1.9 mL).
N-X-Phe-DAP-siRNA Cellular Delivery Analysis A549 lung adenocarcinoma cells (ATCC #) were seeded at a density of 1.05×10^5 cells/well in a glass bottom 24-well plate (500 μL) and grown to 70-90% confluency. Cells were washed with 1× phosphate buffered saline (PBS, Gibco 14190144), samples were added (500 μL/well), and incubated for 4 h at 37° C., 5% C02. After 4 h, media was removed, cells were washed with 1×PBS, and fixed with 4% paraformaldehyde solution. After 10 min, cells were washed twice with 1×PBS and incubated with DAPI stain (1 μg/mL) in the dark. After 5 min, cells were washed three times with 1×DPBS and stored at −20° C. until imaging. A Nikon T1 epifluorescence microscope was used for fluorescent imaging. Images were collected at 40× magnification using NIS-Elements Viewer (Nikon) software. All images were processed in Adobe Photoshop by selecting “image” then “Adjustments” then “Levels”. In the pop-up window, “Channel” was selected followed by “Green” and Output levels were adjusted with an upper limit of 200. In the sample pop-up window under “Options” the “Enhance Per Channel Contrast” was selected under algorithms.

cells = experiment: Delivery of fluorescent protein encoding mRNA and plasmid DNA into cells (FIG. 50); assay type: cell-based; details: 14 nM 1-Nap-Phe-DAP, 24 hours
Method: FIG. 50 has images of cells treated with a mixture of 1-Nap-Phe-DAP with fluorescent protein encoding mRNA (panel A) and plasmid DNA (panel B). […] In this example, 14 nM of the 1-Nap-Phe-DAP was used with 1 microgram of mRNA or pDNA for 24 hours, after which the cells were images.

| SMILES | Diameter (nm), TEM [1] [nm] | morphology of siRNA nanoparticles/aggregates [1] | FITC-siRNA delivery compared with Lipofectamine [2] | delivery of fluorescent protein encoding mRNA into cells (cells; 1 microgram mRNA, FIG. 50 panel A) | delivery of plasmid DNA into cells (cells; 1 microgram pDNA, FIG. 50 panel B) |
| --- | --- | --- | --- | --- | --- |
| NCCCNC(=O)[C@H](Cc1ccccc1)NC(=O)Cc1cccc2ccccc12 [1-Nap-Phe-DAP] | 211 ± 17 | spherical micelle-like structures | improved siRNA delivery | fluorescence visible in the cytosol | fluorescence visible in the cytosol |
| NCCCNC(=O)[C@H](Cc1ccccc1)NC(=O)Cc1ccc2ccccc2c1 [2-Nap-Phe-DAP] | 450 ± 27 | spherical micelle-like structures | on par with Lipofectamine | – | – |
| NCCCNC(=O)[C@H](Cc1ccccc1)NC(=O)OCc1ccccc1 [Cbz-Phe-DAP] | 93 ± 9 | smaller spheres | improved siRNA delivery | – | – |
| NCCCNC(=O)[C@H](Cc1ccccc1)NC(=O)C1CCCCC1 [Cyc-Phe-DAP] | 71 ± 2 | smaller spheres | on par with Lipofectamine | – | – |
| NCCCNC(=O)[C@H](Cc1ccccc1)NC(=O)CC1c2ccccc2-c2ccccc21 [Fm-Phe-DAP] | 163 ± 10 | spherical micelle-like structures | on par with Lipofectamine | – | – |
| NCCCNC(=O)[C@H](Cc1cccc(F)c1)NC(=O)OCC1c2ccccc2-c2ccccc21 [Fmoc-3F-Phe-DAP] | 170 ± 8 | mixtures of spherical particles and one-dimensional fibril-like structures | on par with Lipofectamine | – | – |
| NCCCNC(=O)[C@H](Cc1c(F)c(F)c(F)c(F)c1F)NC(=O)OCC1c2ccccc2-c2ccccc21 [Fmoc-F5-Phe-DAP] | 140 ± 12 | mixtures of spherical particles and one-dimensional fibril-like structures | improved siRNA delivery | – | – |
| NCCCNC(=O)[C@H](Cc1ccccc1)NC(=O)OCC1c2ccccc2-c2ccccc21 [Fmoc-Phe-DAP] | 136 ± 7 | spherical micelle-like structures | improved siRNA delivery | – | – |
| CCCCCCC(=O)N[C@@H](Cc1ccccc1)C(=O)NCCCN [Hex-Phe-DAP] | 81 ± 10 | mixtures of spherical particles and one-dimensional fibril-like structures; also recorded: primarily exhibiting fibril and sheet-like structures that aggregate into bundles | improved siRNA delivery | – | – |
| NCCCNC(=O)[C@H](Cc1ccccc1)NC(=O)CCCc1ccc2ccc3cccc4ccc1c2c34 [Pyr-Phe-DAP] | 50 ± 5.0 | mixtures of spherical particles and one-dimensional fibril-like structures; also recorded: dominated by fibril-like structures with some evidence of spherical nanoparticles | improved siRNA delivery | – | – |
